The assay concerns the target T1, DrOTOP1 G130W (Danio rerio, UniProt Q7ZWK8, G130W).
T1 construct: A previously generated codon-optimized full-length DrOTOP1[8]; (UniProt: Q7ZWK8) construct; expressed in transfected cells; host or cells: HEK-293 (CRL-1573, ATCC)
T1 sequence (Q7ZWK8 1-586 G130W): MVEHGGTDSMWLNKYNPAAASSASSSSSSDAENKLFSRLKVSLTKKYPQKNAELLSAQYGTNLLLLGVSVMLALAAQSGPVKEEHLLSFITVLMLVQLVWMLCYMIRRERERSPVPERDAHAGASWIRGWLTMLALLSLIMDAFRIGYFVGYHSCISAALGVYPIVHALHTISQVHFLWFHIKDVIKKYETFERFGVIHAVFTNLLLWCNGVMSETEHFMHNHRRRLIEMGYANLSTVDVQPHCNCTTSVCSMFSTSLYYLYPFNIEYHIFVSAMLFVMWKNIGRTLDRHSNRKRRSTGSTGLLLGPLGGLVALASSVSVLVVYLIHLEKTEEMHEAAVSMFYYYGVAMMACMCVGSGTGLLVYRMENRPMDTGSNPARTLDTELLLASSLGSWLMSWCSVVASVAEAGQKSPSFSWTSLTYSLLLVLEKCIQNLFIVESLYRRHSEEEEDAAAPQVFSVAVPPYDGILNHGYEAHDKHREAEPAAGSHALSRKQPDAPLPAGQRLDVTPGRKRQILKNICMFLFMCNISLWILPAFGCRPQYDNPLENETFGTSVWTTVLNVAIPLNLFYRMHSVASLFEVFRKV
Put plainly: Whole-cell patch-clamp, inhibition of acid-evoked currents, DrOTOP1 G130W (outer site). The class given is cell-based, zebrafish (Danio rerio). The text has this:
To functionally test the significance of the two binding sites identified by cryo-EM, we generated point mutations of DrOTOP1 using the binding poses and conformational changes observed in DrOTOP1_C2.2 to guide our mutations. As per the binding pose that best fits our cryo-EM density, C2.2 forms the following interactions in the outer site: hydrophobic packing against many non-polar residues W126, G130, M133, L134, F271, F570, and M573, and π-stacking with W532 (Fig. 5A). In addition, C2.2 could potentially form H-bonds with E267, if the sidechain is protonated or a water bridge is present, and with H574 if it moves closer (Fig. 5A). Likewise, C2.36 presents a heterocyclic nitrogen that can potentially form a H-bond with E267, similarly, provided a protonation or water bridge is present (Fig. 5B). In addition, C2.36 forms a T-shaped π-stacking interaction with H574, whose sidechain has rotated 90 degrees (compared to DrOTOP1_apo), presumably to accommodate the interaction (Fig. 5B). Considering other inhibitors discovered from the second round of screening, many contain functional groups like the carbonyl groups of Group 1 molecules and the heterocyclic nitrogen atoms of Group 2 molecules (Supplementary Fig. 3E), that can potentially form similar H-bonds with E267 as C2.2 and C2.36, assuming the binding modes are similar. In the central site, C2.2 binds with the following interactions: hydrophobic packing with residues V201, F271, A274, V278, and A388, π-stacking with F277, and H-bonding with E384 (Fig. 5C).
Each non-aromatic residue was mutated to tryptophan, which was expected to cause steric occlusion. […] This seemed appropriate given the small number of H-bonds in these pockets, the ambiguity of how the inhibitors fit the density, and the prevalence of hydrophobic packing interactions (Fig. 5A–C).
HEK-293 cells (CRL-1573, ATCC) were cultured in DMEM (Thermofisher 11995073) containing 10% fetal bovine serum (Life Technology 16000044) and Penicillin-Streptomycin (100 I.U./mL) and (100 µg/mL), respectively. Cells were transfected with WT DrOTOP1 or mutant DrOTOP1 channels in 35 mm petri dishes, with ~ 500 ng DNA and 2 μL TransIT-LT1 transfection reagent (Mirus Bio Corporation, Cat # MIR2300) following the manufacturer’s protocol. All constructs were subcloned into a pcDNA3.1 vector that adds an N-terminal fusion tag consisting of an octahistidine tag followed by eGFP, a Gly-Thr-Gly-Thr linker and a 3C protease cleavage site ([…]) followed by WT DrOTOP1, WT mOTOP1, WT hOTOP1, or mutated DrOTOP1. Point mutations were generated via In-Fusion Cloning (Takara) using single-stranded DNA primers generated through IDT and sequence confirmed by Sanger sequencing (GeneWiz).
Whole-cell patch-clamp recording was performed as previously described[6],[22],[25]. Recordings were made with an Axopatch 200B amplifier, digitized with a Digidata 1322a 16-bit data acquisition system, acquired with pClamp 8.2 and analyzed with Clampfit 10 (Molecular Devices). Recordings were sampled at 5 kHz and filtered at 1 kHz. Patch Pipettes with resistance of […] were fabricated from borosilicate glass, and only recordings with a giga-Ohm seal were used in analysis. Membrane potential was held at −80 mV for the duration of recordings. At the beginning of recordings and between, cells were washed with Tyrode’s solution (see below). Once a giga-Ohm seal was reached, cells were lifted and placed in front of microcapillary tubes controlled by a Fast-Step perfusion system (Warner Instruments) so that extracellular solutions could be rapidly exchanged during each experiment.
Standard Tyrode’s solution consisted of 145 mM NaCl, 5 mM KCl, MgCl2, 2 mM CaCl2, 20 mM D-Glucose, and 10 mM HEPES (for pH 7.4). All other extracellular patch-clamp solutions contained 160 mM NMDG-Cl, 2 mM CaCl2, and the following buffers: 10 mM HEPES (for pH 7.4), 10 mM MES (for pH 6.5-5.5), 10 mM CHES for pH 10, and 10 mM HomoPIPES for (pH 5.0). pH adjusted with HCl. […]
(The patch-clamp technique gives a direct electrical read-out from membranes.)

pIC50: −log10 of the molar value. “And” between values parts separate entries of the source, which are not always exact repeats. Equal entries are not always repeated. Where only a bound is given, the exact number is not on record here.

In turn, `C=C(C)COc1ccccc1NC(=O)c1nc[nH]c1C` [C2.2] came in with an inhibition at 30 µM (30 µM, DrOTOP1 G130W, single cells) of 15.3%. This compound also yielded an inhibition at 100 µM (DrOTOP1 G130W, single cells) of 42.4%. In addition, the Hill coefficient (DrOTOP1 G130W) was 1.123. Further, where the note is “DrOTOP1 G130W, pH 5.5”, the pIC50 was 3.88 and 3.86. Under “G130W + C2.2, n=5”, the “Mean, Fig 5N” value stood at 15.24. Where the note is “outer site mutants compared with WT”, the “Disruption of inhibitory activity by site-directed mutagenesis of outer site residues” value is at most 20 fold.
In the case of `O=C(/C(=N\O)c1ccccc1)c1ccccc1` [C11, benzil monoxime], at 100 µM the inhibition (DrOTOP1 G130W, single cells) was 62.7%.

As a reminder, the inhibition is the relative decrease from the control value, in per cent. Broadly, the Hill coefficient is the slope factor of the fitted curve. A word on the pIC50: it is the IC50 on a negative log10 scale, so that one unit is a factor of ten. The low end stands for a high IC50, the high end for a low IC50.

Values taken from publication PMC12549899 (Nature Communications, 2025).
